Test results as given in BigSolDB 2.1.

Nc1nccnc1Cl
solubility (mole fraction)
Conditions | 278.15 K | 283.15 K | 288.15 K | 293.15 K | 298.15 K | 303.15 K | 308.15 K | 313.15 K | 318.15 K | 323.15 K
in DMF | 0.00918 | 0.0122 | 0.0155 | 0.02 | 0.0247 | 0.0295 | 0.0346 | 0.04 | 0.0456 | 0.0515
in ethylene glycol | 0.000725 | 0.000935 | 0.00117 | 0.00147 | 0.0018 | 0.00217 | 0.00257 | 0.00301 | 0.00348 | 0.00394
in isopropanol | 0.002 | 0.00254 | 0.00319 | 0.004 | 0.00488 | 0.00591 | 0.00697 | 0.008 | 0.00929 | 0.0109
in methanol | 0.00283 | 0.00372 | 0.00479 | 0.00598 | 0.00723 | 0.00847 | 0.01 | 0.0116 | 0.0133 | 0.0153
in water | 2.78e-05 | 3.74e-05 | 4.95e-05 | 6.21e-05 | 7.6e-05 | 9.05e-05 | 0.000106 | 0.000123 | 0.00014 | 0.000158

Nc1ncc(Br)nc1Br
solubility (mole fraction)
Conditions | 278.15 K | 283.15 K | 288.15 K | 293.15 K | 298.15 K | 303.15 K | 308.15 K | 313.15 K | 318.15 K | 323.15 K
in ethanol | 0.000754 | 0.000938 | 0.00115 | 0.00136 | 0.00158 | 0.0018 | 0.00202 | 0.00231 | 0.00261 | 0.00291
in ethylene glycol | 0.000127 | 0.000155 | 0.000185 | 0.000219 | 0.000256 | 0.000291 | 0.00033 | 0.000373 | 0.00042 | 0.000469
in isopropanol | 0.000516 | 0.000615 | 0.00072 | 0.00085 | 0.000986 | 0.00115 | 0.00131 | 0.00149 | 0.00169 | 0.00192
in propylene glycol | 0.000258 | 0.000304 | 0.00037 | 0.000432 | 0.000506 | 0.000577 | 0.000651 | 0.000734 | 0.000827 | 0.000928
in water | 2.55e-06 | 3.14e-06 | 3.73e-06 | 4.44e-06 | 5.18e-06 | 5.89e-06 | 6.76e-06 | 7.68e-06 | 8.61e-06 | 9.63e-06
